This is an account of results in ChEMBL document CHEMBL1157759, “Discovery of GS-9131: Design, synthesis and optimization of amidate prodrugs of the novel nucleoside phosphonate HIV reverse transcriptase (RT) inhibitor GS-9148” (Bioorg Med Chem, 2010).

A value given as a limit tells only on which side of the number the result lay.

Data set [1] in a line: Cytotoxicity against human MT2 cells after 5 days by XTT assay. In general terms: Tetrazolium dyes change colour on reduction, which living cells bring about.
Data set [2] relates to Human immunodeficiency virus 1. Nature of the data set: Antiviral activity against HIV1 3B infected in human MT2 cells assessed as inhibition of virus-induced cytopathic effect after 5 days by XTT assay. The class given is functional, organism-based. (Cytopathic effects are the visible damage that an infection or toxin causes in cultured cells.)
The nature of data set [3]: Cytotoxicity against human HepG2 cells assessed as inhibition of mitochondrial DNA replication after 14 days. To be noted: read-out: MTC50.
Data set [4] can be described thus: Hydrolytic stability assessed as compound degradation per ug of protein at 10 uM after 90 mins by scintillation counting in presence of human recombinant cathepsin A. To be noted: 1.5 h.
Data set [5] is described as follows: Metabolic stability in dog plasma assessed as compound remaining after 60 mins.
The species named for the next data set is Homo sapiens. The experiment in a line: in vitro. To be noted: plasma.
In a further data set the test system is PBMC. Nature of the data set: Metabolic stability in cathepsin A-overexpressing human PBMC assessed as compound degradation per ug of protein at 10 uM after 120 mins by scintillation counting. To be noted: 2 h, 30 µM.
Data set [6] can be described thus: Half life in dog hepatocytes at 2 uM by LC/MS/MS analysis. To be noted: for t1/2: 2 µM.
The nature of data set [7]: Clearance in iv dosed Beagle dog after 24 hrs. To be noted: in vivo.
Data set [8] in a line: Half life in human hepatocytes at 2 uM by LC/MS/MS analysis. To be noted: t1/2.
A short description of data set [9]: Half life in human intestine S9 fraction at 2 uM by LC/MS/MS analysis.
Data set [10] can be described thus: Half life in dog intestine S9 fraction at 2 uM by LC/MS/MS analysis. To be noted: for half-life at 2 µM: intestine S9 fraction, t1/2.
A short description of data set [11]: Bioavailability in iv dosed Beagle dog. To be noted: in vivo.
Data set [12] can be described thus: Oral bioavailability in Beagle dog. To be noted: in vivo.
[13] abbreviates: Human immunodeficiency virus 1, 3B, MT2, 120 h.

As usually defined, the EC50 is the concentration that produces a half-maximal response. `C[C@H](Cn1cnc2c(N)ncnc21)OCP(=O)(O)O` [TENOFOVIR ANHYDROUS] gave a CC50 at 120 h in data set [1] greater than 50 µM. Further, the EC50 in data set [2] (setting [13]) amounted to 13 nM. Moreover, the CC50 at 336 h in data set [3] came out at 3.6 µM.

The share remaining is what is left of the initial amount, in per cent. By half-life is commonly meant the time needed for the level to fall by half in the phase considered. High values mean slow loss, low ones fast loss. For `CCCCOC(=O)[C@H](CC)NP(=O)(CO[C@@H]1C=C(F)[C@H](n2cnc3c(N)ncnc32)O1)N[C@@H](CC)C(=O)OCCCC`, the results for the Activity (in [4]; in the data set with PBMC) were 1872 pmol/min and 1.3 pmol/min, respectively. Besides, the CC50 at 120 h in data set [1] was greater than 100 µM. For the same compound, the share remaining at 1 h came out at 100% in data set [5] (Stability) and 99% in the data set filed under Homo sapiens (Stability). The EC50 in data set [2] (setting [13]) amounted to 90 nM. The same compound gave a half-life at 2 µM in data set [6] (t1/2) of 73 min.

What is called clearance is the rate of elimination divided by the concentration. A high value points to a high capacity for elimination. As to `CCCCOC(=O)[C@H](C)NP(=O)(CO[C@@H]1C=C(F)[C@H](n2cnc3c(N)ncnc32)O1)N[C@@H](C)C(=O)OCCCC`, the Activity in [4] is 17355 pmol/min; in the data set on PBMC, 18 pmol/min. The CC50 at 120 h in [1] came to 51 µM. Moreover, the fraction remaining at 1 h is 100% in [5] and 96% in the data set listed under Homo sapiens. Also, the EC50 in data set [2] (setting [13]) was 68 nM. In data set [6], this compound showed a half-life at 2 µM of 48 min. Further, in data set [7], the clearance at 24 h is 53.7 mL/min/kg.

Consider `CC(C)OC(=O)[C@H](C)NP(=O)(CO[C@@H]1C=C(F)[C@H](n2cnc3c(N)ncnc32)O1)Oc1ccccc1` (stereo in doubt; 24) [(2S)-ISOPROPYL 2-(((2R,5R)-5-(6-AMINO-9H-PURIN-9-YL)-4-FLUORO-2,5-DIHYDROFURAN-2-YLOXY)(PHENOXY)PHOSPHORYLAMINO)PROPANOATE (ENANTIOMERIC MIX)], for which the Activity in data set [4] is recorded as 35000 pmol/min; in the data set with PBMC, 20 pmol/min. Also, the half-life at 2 µM in data set [8] was 159 min; in data set [9], 106 min; in data set [10] it was 15 min. The compound further came in with a CC50 at 120 h in data set [1] of 139 µM. Besides, the EC50 in data set [2] (mt2) is 9.2 nM. Further, the t1/2 in [6] is recorded as 103 min.

In general, bioavailability refers to dose-corrected exposure relative to a reference, in per cent. A higher bioavailability goes with much systemic uptake. Consider `C[C@H](NP(=O)(CO[C@@H]1C=C(F)[C@H](n2cnc3c(N)ncnc32)O1)Oc1ccccc1)C(=O)OC1CCC1` (stereo in doubt; 18r(A)) [(2S)-CYCLOBUTYL 2-((((2R,5R)-5-(6-AMINO-9H-PURIN-9-YL)-4-FLUORO-2,5-DIHYDROFURAN-2-YLOXY)METHYL)(PHENOXY)PHOSPHORYLAMINO)PROPANOATE (ENANTIOMERIC MIX)], for which the Activity in data set [4] was found to be 2527 pmol/min; with PBMC it was 3.2 pmol/min. For the same compound, in data set [2] (mt2), the EC50 was greater than 45 nM. The compound further gave a half-life at 2 µM in [6] (t1/2) of 140 min. In addition, in [11], the bioavailability came to 9.8%. Further, the t1/2 in data set [10] (s9, 2 µM, 2 µM) came to 32 min.

Take `CC(C)COC(=O)[C@H](Cc1ccccc1)NP(=O)(CO[C@@H]1C=C(F)[C@H](n2cnc3c(N)ncnc32)O1)Oc1ccccc1` (stereo partly specified): the results for the Activity (in [4]; in the data set on PBMC) were 29655 pmol/min and 31 pmol/min, respectively. This compound displayed a CC50 at 120 h in data set [1] of 38.3 µM. Also, the bioavailability in data set [12] was 2.6%. The EC50 in data set [2] (setting [13]) is 6 nM. Besides, the half-life at 2 µM in data set [6] (t1/2) turned out to be 28 min; in [10] it was 8.3 min. The same compound gave a clearance at 24 h in data set [7] of 61.7 mL/min/kg.

As for `C[C@H](NP(=O)(CO[C@@H]1C=C(F)[C@H](n2cnc3c(N)ncnc32)O1)Oc1ccccc1)C(=O)OC1CCC1` (stereo in doubt; 18r) [(2S)-CYCLOBUTYL 2-((((2R,5R)-5-(6-AMINO-9H-PURIN-9-YL)-4-FLUORO-2,5-DIHYDROFURAN-2-YLOXY)METHYL)(PHENOXY)PHOSPHORYLAMINO)PROPANOATE (ENANTIOMERIC MIX)], the Activity is 18150 pmol/min in data set [4] and 7.7 pmol/min in the data set on PBMC. Besides, the half-life at 2 µM was 98 min in data set [8], 122 min in [9] and 25 min in data set [10]. The same compound registered a CC50 at 120 h in [1] of 57 µM. The EC50 in data set [2] (mt2) turned out to be 36 nM. The compound further came in with a t1/2 in data set [6] of 100 min. This compound showed a clearance at 24 h in [7] of 46 mL/min/kg.

As for `CC(C)OC(=O)[C@H](C)N[P@](=O)(CO[C@H](C)Cn1cnc2c(N)ncnc21)Oc1ccccc1` [TENOFOVIR ALAFENAMIDE], the bioavailability in data set [12] amounted to 21%. In addition, in [7], the clearance at 24 h was 37.2 mL/min/kg.
